# Experimental data reported in US10329295B2, “Pyrrolotriazine inhibitors of IRAK4 activity” (MERCK SHARP & DOHME CORP., priority 2015, dated 2019).
# Where a name gives a salt, the structure may show the parent alone.
# Molecular target: GST tagged IRAK4 (Homo sapiens (Human), UniProt Q9NWZ3)
# Test: IRAK4 Kinase Assay (IMAP fluorescence polarization)
# Format: biochemical
# Details: 0.5 nM GST tagged IRAK4, 100 μM ATP, 30 minutes at 25° C.
# Method: The kinase activity of IRAK4 is determined by its ability to catalyze the phosphorylation of a fluorescent polypeptide substrate. The extent of phosphorylation is measured using the IMAP technology (Molecular Devices) where the phosphorylated fluorescent substrate binds to the large M(III)-based nanoparticles which reduces the rotational speed of the substrate and thus increases its fluorescent polarization (FP).
# 20 μL reaction mixture contains 10 mM TriHCl, pH 7.2, 0.5 nM GST tagged IRAK4 (SignalChem), 100 nM fluorescent peptide substrate (RP7030, Molecular Devices), 100 μM ATP, 1 mM DDT, 1 mM MgCl2, and 0.01% Tween 20. The reaction is initiated by the addition of ATP. After incubation for 30 minutes at 25° C., 60 μL of Progressive IMAP Reagent (Molecular Devices) is added to stop the reaction. Change in RP7030's FP is determined by a FP reader (Analyst HT, LJL BioSystems).
# Sequence of GST tagged IRAK4 (Q9NWZ3 whole entry): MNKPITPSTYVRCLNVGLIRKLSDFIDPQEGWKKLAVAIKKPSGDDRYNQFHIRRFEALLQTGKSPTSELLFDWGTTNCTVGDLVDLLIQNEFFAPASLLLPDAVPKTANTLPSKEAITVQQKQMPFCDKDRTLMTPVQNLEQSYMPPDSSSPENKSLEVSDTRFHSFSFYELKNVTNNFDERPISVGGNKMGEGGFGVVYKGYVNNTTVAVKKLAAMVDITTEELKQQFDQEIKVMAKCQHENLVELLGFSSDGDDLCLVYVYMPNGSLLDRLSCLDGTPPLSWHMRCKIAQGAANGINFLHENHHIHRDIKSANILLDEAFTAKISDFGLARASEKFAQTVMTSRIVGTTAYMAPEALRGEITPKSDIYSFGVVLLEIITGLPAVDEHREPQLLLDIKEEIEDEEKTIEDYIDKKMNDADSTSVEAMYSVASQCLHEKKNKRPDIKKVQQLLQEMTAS
row,SMILES,IC50
1,"Cn1cc(NC(=O)c2ccc3cnc(N4C[C@@H]5CC[C@H]4CN5)nn23)c(C#N)n1 (single isomer, unassigned) [Example 46, N-(3-cyano-1-methyl-1H-pyrazol-4-yl)-2-[(1S,4S)- or (1R,4R)-2,5-diazabicyclo[2.2.2]oct-2-yl]pyrrolo[2,1-f][1,2,4]triazine-7-carboxamide trifluoroacetate]",72 nM
2,"O=C(Nc1ccsc1Cl)c1ccc2cnc(N3C[C@@H]4CC[C@H]3CN4)nn12 (single isomer, unassigned) [Example 53, N-(2-chlorothiophen-3-yl)-2-[(1S,4S)- or (1R,4R)-2,5-diazabicyclo[2.2.2]oct-2-yl]pyrrolo[2,1-f][1,2,4]triazine-7-carboxamide trifluoroacetate]",1640 nM
3,"O=C(Nc1ccsc1Cl)c1ccc2cnc(N3C[C@H]4CC[C@@H]3CN4)nn12 (single isomer, unassigned) [Example 54, N-(2-chlorothiophen-3-yl)-2-[(1S,4S)- or (1R,4R)-2,5-diazabicyclo[2.2.2]oct-2-yl]pyrrolo[2,1-f][1,2,4]triazine-7-carboxamide trifluoroacetate]",819 nM
4,"O=C(Nc1ccccc1Cl)c1ccc2cnc(N3C[C@H]4CC[C@@H]3CN4)nn12 (single isomer, unassigned) [Example 55, N-(2-chlorophenyl)-2-[(1S,4S)- or (1R,4R)-2,5-diazabicyclo[2.2.2]oct-2-yl]pyrrolo[2,1-f][1,2,4]triazine-7-carboxamide trifluoroacetate]",557 nM
5,"N#Cc1ccccc1NC(=O)c1ccc2cnc(N[C@H]3CCCCNC3)nn12 (single isomer, unassigned) [Example 60, 2-[(3S)- or (3R)-azepan-3-ylamino]-N-(2-cyanophenyl)pyrrolo[2,1-f][1,2,4]triazine-7-carboxamide trifluoroacetate]",8 nM
6,"O=C(Nc1ccccc1C(F)F)c1ccc2cnc(N3C[C@H]4CC[C@@H]3CN4)nn12 (single isomer, unassigned) [Example 62, 2-[(1S,4S)- or (1R,4R)-2,5-diazabicyclo[2.2.2]oct-2-yl]-N-[2-(difluoromethyl)phenyl]-pyrrolo[2,1-f][1,2,4]triazine-7-carboxamide trifluoroacetate]",944 nM
7,"Cn1cc(NC(=O)c2ccc3cnc(N4C[C@@H]5CC[C@H]4CN5)nn23)c(Br)n1 (single isomer, unassigned) [Example 63, N-(3-bromo-1-methyl-1H-pyrazol-4-yl)-2-[(1S,4S)- or (1R,4R)-2,5-diazabicyclo[2.2.2]oct-2-yl]pyrrolo[2,1-f][1,2,4]triazine-7-carboxamide trifluoroacetate]",92 nM
8,"Cn1cc(NC(=O)c2ccc3cnc(N4C[C@H]5CC[C@@H]4CN5)nn23)c(Br)n1 (single isomer, unassigned) [Example 64, N-(3-bromo-1-methyl-1H-pyrazol-4-yl)-2-[(1S,4S)- or (1R,4R)-2,5-diazabicyclo[2.2.2]oct-2-yl]pyrrolo[2,1-f][1,2,4]triazine-7-carboxamide trifluoroacetate]",122 nM
9,"O=C(Nc1ccccc1Cl)c1ccc2cnc(N3C[C@@H]4CC[C@H]3CN4)nn12 (single isomer, unassigned) [Example 65, N-(2-chlorophenyl)-2-[(1S,4S)- or (1R,4R)-2,5-diazabicyclo[2.2.2]oct-2-yl]pyrrolo[2,1-f][1,2,4]triazine-7-carboxamide trifluoroacetate]",2060 nM
10,"N#Cc1ccccc1NC(=O)c1ccc2cnc(N[C@@H]3CCCCNC3)nn12 (single isomer, unassigned) [Example 73, 2-[(3S)- or (3R)-azepan-3-ylamino]-N-(2-cyanophenyl)pyrrolo[2,1-f][1,2,4]triazine-7-carboxamide trifluoroacetate]",27 nM
11,"N#Cc1ccccc1NC(=O)c1ccc2cnc(N3C[C@@H]4CC[C@H]3CN4)nn12 (single isomer, unassigned) [Example 74, N-(2-cyanophenyl)-2-[(1S,4S)- or (1R,4R)-2,5-diazabicyclo[2.2.2]oct-2-yl]pyrrolo[2,1-f][1,2,4]triazine-7-carboxamide trifluoroacetate]",850 nM
12,"O=C(Nc1ccccc1C(F)(F)F)c1ccc2cnc(N3C[C@@H]4CC[C@H]3CN4)nn12 (single isomer, unassigned) [Example 78, 2-[(1S,4S)- or (1R,4R)-2,5-diazabicyclo[2.2.2]oct-2-yl]-N-[2-(trifluoromethyl)phenyl]-pyrrolo[2,1-f][1,2,4]triazine-7-carboxamide trifluoroacetate]",1450 nM
13,"O=C(Nc1cscc1C(F)F)c1ccc2cnc(N3C[C@H]4CC[C@@H]3CN4)nn12 (single isomer, unassigned) [Example 81, 2-[(1S,4S)- or (1R,4R)-2,5-diazabicyclo[2.2.2]oct-2-yl]-N-[4-(difluoromethyl)thiophen-3-yl]pyrrolo[2,1-f][1,2,4]triazine-7-carboxamide trifluoroacetate]",63 nM

# Second part, the compound after the results:
row,IC50,SMILES
1,125 nM,"Cn1cc(NC(=O)c2ccc3cnc(N4C[C@@H]5CC[C@H]4CN5)nn23)c(Cl)n1 (single isomer, unassigned) [Example 44, N-(3-chloro-1-methyl-1H-pyrazol-4-yl)-2-[(1S,4S)- or (1R,4R)-2,5-diazabicyclo[2.2.2]oct-2-yl]pyrrolo[2,1-f][1,2,4]triazine-7-carboxamide trifluoroacetate]"
2,80 nM,"Cn1cc(NC(=O)c2ccc3cnc(N4C[C@H]5CC[C@@H]4CN5)nn23)c(Cl)n1 (single isomer, unassigned) [Example 45, N-(3-chloro-1-methyl-1H-pyrazol-4-yl)-2-[(1S,4S)- or (1R,4R)-2,5-diazabicyclo[2.2.2]oct-2-yl]pyrrolo[2,1-f][1,2,4]triazine-7-carboxamide trifluoroacetate]"
3,265 nM,"Cn1cc(NC(=O)c2ccc3cnc(N4C[C@H]5CC[C@@H]4CN5)nn23)c(C#N)n1 (single isomer, unassigned) [Example 47, N-(3-cyano-1-methyl-1H-pyrazol-4-yl)-2-[(1S,4S)- or (1R,4R)-2,5-diazabicyclo[2.2.2]oct-2-yl]pyrrolo[2,1-f][1,2,4]triazine-7-carboxamide trifluoroacetate]"
4,1650 nM,"O=C(Nc1ccsc1Br)c1ccc2cnc(N3C[C@@H]4CC[C@H]3CN4)nn12 (single isomer, unassigned) [Example 48, N-(2-bromothiophen-3-yl)-2-[(1S,4S)- or (1R,4R)-2,5-diazabicyclo[2.2.2]oct-2-yl]pyrrolo[2,1-f][1,2,4]triazine-7-carboxamide trifluoroacetate]"
5,1930 nM,"O=C(Nc1ccsc1Br)c1ccc2cnc(N3C[C@H]4CC[C@@H]3CN4)nn12 (single isomer, unassigned) [Example 49, N-(2-bromothiophen-3-yl)-2-[(1S,4S)- or (1R,4R)-2,5-diazabicyclo[2.2.2]oct-2-yl]pyrrolo[2,1-f][1,2,4]triazine-7-carboxamide trifluoroacetate]"
6,10000 nM,"O=C(Nc1ccccc1C(F)F)c1ccc2cnc(N3C[C@@H]4CC[C@H]3CN4)nn12 (single isomer, unassigned) [Example 61, 2-[(1S,4S)- or (1R,4R)-2,5-diazabicyclo[2.2.2]oct-2-yl]-N-[2-(difluoromethyl)phenyl]-pyrrolo[2,1-f][1,2,4]triazine-7-carboxamide trifluoroacetate]"
7,218 nM,"O=C(Nc1ccccc1C(F)(F)F)c1ccc2cnc(N3C[C@H]4CC[C@@H]3CN4)nn12 (single isomer, unassigned) [Example 68, 2-[(1S,4S)- or (1R,4R)-2,5-diazabicyclo[2.2.2]oct-2-yl]-N-[2-(trifluoromethyl)phenyl]-pyrrolo[2,1-f][1,2,4]triazine-7-carboxamide trifluoroacetate]"
8,5 nM,"Cn1cc(NC(=O)c2ccc3cnc(N[C@H]4CCCCNC4)nn23)c(C(F)(F)F)n1 (single isomer, unassigned) [Example 69, 2-[(3S)- or (3R)-azepan-3-ylamino]-N-[1-methyl-3-(trifluoromethyl)-1H-pyrazol-4-yl]pyrrolo[2,1-f][1,2,4]triazine-7-carboxamide trifluoroacetate]"
9,4 nM,"Cn1cc(NC(=O)c2ccc3cnc(N[C@@H]4CCCCNC4)nn23)c(C(F)(F)F)n1 (single isomer, unassigned) [Example 72, 2-[(3S)- or (3R)-azepan-3-ylamino]-N-[1-methyl-3-(trifluoromethyl)-1H-pyrazol-4-yl]pyrrolo[2,1-f][1,2,4]triazine-7-carboxamide trifluoroacetate]"
10,4000 nM,"N#Cc1ccccc1NC(=O)c1ccc2cnc(N3C[C@H]4CC[C@@H]3CN4)nn12 (single isomer, unassigned) [Example 75, N-(2-cyanophenyl)-2-[(1S,4S)- or (1R,4R)-2,5-diazabicyclo[2.2.2]oct-2-yl]pyrrolo[2,1-f][1,2,4]triazine-7-carboxamide trifluoroacetate]"
11,1960 nM,"O=C(Nc1ccccc1Br)c1ccc2cnc(N3C[C@H]4CC[C@@H]3CN4)nn12 (single isomer, unassigned) [Example 77, N-(2-bromophenyl)-2-[(1S,4S)- or (1R,4R)-2,5-diazabicyclo[2.2.2]oct-2-yl]pyrrolo[2,1-f][1,2,4]triazine-7-carboxamide trifluoroacetate]"
12,172 nM,"O=C(Nc1cscc1C(F)F)c1ccc2cnc(N3C[C@@H]4CC[C@H]3CN4)nn12 (single isomer, unassigned) [Example 80, 2-[(1S,4S)- or (1R,4R)-2,5-diazabicyclo[2.2.2]oct-2-yl]-N-[4-(difluoromethyl)thiophen-3-yl]pyrrolo[2,1-f][1,2,4]triazine-7-carboxamide trifluoroacetate]"
